Measured values reported in BindingDB's records for doi:10.1016/j.ejmech.2021.113780 (Shandong University, 2021).

Assay: Inhibition of capsid protein in HBV infected in human HepDES19 cells assessed as inhibition of viral replication incubated for 3 days by strand preferential qPCR analysis

Structure (SMILES) | EC50 [µM]
CCOC(=O)C1=C(CN2CC3(CC2=O)CN(C(=O)OC(C)(C)C)C3)NC(c2nccs2)=NC1c1ccc(F)cc1Br (centres undefined) | 13.3
CCOC(=O)C1=C(CN2CCC3(CCN(C(=O)OC(C)(C)C)C3)C2=O)NC(c2nccs2)=NC1c1ccc(F)cc1Br (centres undefined) | 5.17
CCOC(=O)C1=C(CN2CC3(CCN(C(=O)OC(C)(C)C)C3)CC2=O)NC(c2nccs2)=NC1c1ccc(F)cc1Br (centres undefined) | 10
CCOC(=O)C1=C(CN2CCC3(CNC(=O)C3)C2)NC(c2nccs2)=NC1c1ccc(F)cc1Br (centres undefined) | 2.6
CCOC(=O)C1=C(CN2CCC3(CC2)CNC(=O)C3)NC(c2nccs2)=NC1c1ccc(F)cc1Br (centres undefined) | 3.8
CCOC(=O)C1=C(CN2CCC3(CC2)CNC3=O)NC(c2nccs2)=NC1c1ccc(F)cc1Br (centres undefined) | 1.17
CCOC(=O)C1=C(CN2CCC3(CC(=O)N(Cc4ccccc4)C3=O)C2)NC(c2nccs2)=NC1c1ccc(F)cc1Br (centres undefined) | 2.1
CCOC(=O)C1=C(CN2CCC3(CC2)OCCO3)NC(c2nccs2)=NC1c1ccc(F)cc1Br (centres undefined) | 0.2
CCOC(=O)C1=C(CN2CCC3(CC2)CN(C(=O)OC(C)(C)C)C3)NC(c2nccs2)=NC1c1ccc(F)cc1Br (centres undefined) | 10.4
CCOC(=O)C1=C(CN2CCC3(CCN(C(=O)OC(C)(C)C)C3)C2)NC(c2nccs2)=NC1c1ccc(F)cc1Br (centres undefined) | 4.83
CCOC(=O)C1=C(CN2CCC3(C2)CN(C(=O)OC(C)(C)C)C3)NC(c2nccs2)=NC1c1ccc(F)cc1Br (centres undefined) | 8.83
CCOC(=O)C1=C(CN2CCC3(CCNC3=O)CC2)NC(c2nccs2)=NC1c1ccc(F)cc1Br (centres undefined) | 3.43
CCOC(=O)C1=C(CN2CCC3(CC2)CC(=O)NC3=O)NC(c2nccs2)=NC1c1ccc(F)cc1Br (centres undefined) | 0.68
Nc1ccn([C@@H]2CS[C@H](CO)O2)c(=O)n1 [Epivir] | 0.37
